Experimental data published in ChEMBL document CHEMBL2203257 (Bioorg Med Chem Lett, 2012).

Experiments:
Activin receptor type-2B = Activin receptor type-2B (Homo sapiens, UniProt Q13705); assay: Inhibition of ACVR2B
[1] = biological target: Phosphatidylinositol 4-kinase beta (Homo sapiens, UniProt Q9UBF8); assay: Inhibition of PIK4Cb
[2] = biological target: Phosphatidylinositol 4,5-bisphosphate 3-kinase catalytic subunit alpha isoform (Homo sapiens, UniProt P42336); assay: Inhibition of PIK3Ca
Activin receptor type-2A = Activin receptor type-2A (Homo sapiens, UniProt P27037); assay: Inhibition of ACVR2A
Ephrin type-A receptor 2 = Ephrin type-A receptor 2 (Homo sapiens, UniProt P29317); assay: Inhibition of EPHA2
[3] = Cmax in mouse at 10 mg/kg, po BID; format: ADME, organism-based; parameters: dose 10 mg/kg, route oral; settings: in vivo
[4] = biological target: Calcium/calmodulin-dependent protein kinase type 1D (Homo sapiens, UniProt Q8IU85); assay: Inhibition of CAMK1D
[5] = biological target: Glycogen synthase kinase-3 beta (Homo sapiens, UniProt P49841); assay: Inhibition of GSK3B
Sequence of Glycogen synthase kinase-3 beta (P49841 whole entry): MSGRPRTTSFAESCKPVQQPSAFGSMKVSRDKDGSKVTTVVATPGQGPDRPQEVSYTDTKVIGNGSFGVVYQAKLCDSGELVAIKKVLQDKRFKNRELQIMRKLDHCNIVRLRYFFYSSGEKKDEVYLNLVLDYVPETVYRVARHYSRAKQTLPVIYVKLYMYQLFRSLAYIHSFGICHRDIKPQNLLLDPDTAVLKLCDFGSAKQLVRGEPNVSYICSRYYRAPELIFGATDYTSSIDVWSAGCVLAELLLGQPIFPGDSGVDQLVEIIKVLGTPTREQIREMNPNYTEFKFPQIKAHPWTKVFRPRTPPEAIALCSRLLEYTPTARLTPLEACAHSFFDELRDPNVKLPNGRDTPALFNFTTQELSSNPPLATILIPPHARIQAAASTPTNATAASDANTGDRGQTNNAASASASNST

[6] = biological target: Serine/threonine-protein kinase PAK 4 (Homo sapiens, UniProt O96013); assay: Inhibition of PAK4
[7] = biological target: Cyclin-dependent kinase 9 (Homo sapiens, UniProt P50750); assay: Inhibition of CDK9
Sequence of Cyclin-dependent kinase 9 (P50750 whole entry): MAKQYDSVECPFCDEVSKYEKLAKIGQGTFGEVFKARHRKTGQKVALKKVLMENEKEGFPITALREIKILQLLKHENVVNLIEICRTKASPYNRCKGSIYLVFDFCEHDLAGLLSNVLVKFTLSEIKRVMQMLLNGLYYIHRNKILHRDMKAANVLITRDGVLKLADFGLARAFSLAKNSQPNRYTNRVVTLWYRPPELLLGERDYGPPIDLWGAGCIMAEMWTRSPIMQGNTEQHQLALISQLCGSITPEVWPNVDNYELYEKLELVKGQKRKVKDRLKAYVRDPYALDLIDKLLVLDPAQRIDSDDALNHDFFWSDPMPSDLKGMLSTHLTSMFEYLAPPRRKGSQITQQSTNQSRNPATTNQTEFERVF

[8] = biological target: Tyrosine-protein kinase Fgr (Homo sapiens, UniProt P09769); assay: Inhibition of FGR
Sequence of Tyrosine-protein kinase Fgr (P09769 whole entry): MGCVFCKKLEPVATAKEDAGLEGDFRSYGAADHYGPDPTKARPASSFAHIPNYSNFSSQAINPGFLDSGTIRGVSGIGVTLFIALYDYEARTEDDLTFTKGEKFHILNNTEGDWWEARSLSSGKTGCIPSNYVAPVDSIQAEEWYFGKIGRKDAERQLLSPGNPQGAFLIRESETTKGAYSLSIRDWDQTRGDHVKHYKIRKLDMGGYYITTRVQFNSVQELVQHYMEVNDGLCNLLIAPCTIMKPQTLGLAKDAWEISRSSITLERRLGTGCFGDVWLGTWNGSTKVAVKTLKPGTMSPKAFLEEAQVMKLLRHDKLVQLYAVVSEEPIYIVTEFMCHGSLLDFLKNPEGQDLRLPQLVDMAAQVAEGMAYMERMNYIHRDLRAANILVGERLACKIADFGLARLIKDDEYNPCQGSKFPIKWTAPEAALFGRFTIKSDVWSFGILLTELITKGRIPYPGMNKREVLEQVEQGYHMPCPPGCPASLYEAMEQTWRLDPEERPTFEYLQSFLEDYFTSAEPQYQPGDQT

[9] = biological target: Bromodomain-containing protein 4 (Homo sapiens, UniProt O60885); assay: Inhibition of BRD4
[10] = biological target: Calcium/calmodulin-dependent protein kinase type IV (Homo sapiens, UniProt Q16566); assay: Inhibition of CAMK4
[11] = biological target: Tyrosine-protein kinase SYK (Homo sapiens, UniProt P43405); assay: Inhibition of SYK
[12] = biological target: Serine/threonine-protein kinase Nek2 (Homo sapiens, UniProt P51955); assay: Inhibition of NEK2
Sequence of Serine/threonine-protein kinase Nek2 (P51955 whole entry): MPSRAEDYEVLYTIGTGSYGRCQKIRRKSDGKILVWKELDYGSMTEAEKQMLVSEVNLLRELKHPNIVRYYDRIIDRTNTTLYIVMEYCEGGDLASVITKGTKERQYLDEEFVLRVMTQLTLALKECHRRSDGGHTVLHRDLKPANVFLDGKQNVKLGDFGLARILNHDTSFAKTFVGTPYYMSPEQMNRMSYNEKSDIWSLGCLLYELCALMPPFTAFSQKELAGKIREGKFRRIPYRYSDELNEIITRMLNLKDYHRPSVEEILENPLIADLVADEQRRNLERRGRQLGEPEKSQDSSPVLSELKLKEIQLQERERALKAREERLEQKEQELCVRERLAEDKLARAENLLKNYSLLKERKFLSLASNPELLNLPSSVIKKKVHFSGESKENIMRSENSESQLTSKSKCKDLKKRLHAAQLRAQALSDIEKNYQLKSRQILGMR

Mus musculus = assay: Antiarthritic activity against collagen-induced arthritis mouse model assessed as inhibition of disease progression at 10 mg/kg, po BID for 14 days; format: functional; settings: 336 h
[13] = biological target: Serine/threonine-protein kinase Nek9 (Homo sapiens, UniProt Q8TD19); assay: Inhibition of NEK9
Sequence of Serine/threonine-protein kinase Nek9 (Q8TD19 whole entry): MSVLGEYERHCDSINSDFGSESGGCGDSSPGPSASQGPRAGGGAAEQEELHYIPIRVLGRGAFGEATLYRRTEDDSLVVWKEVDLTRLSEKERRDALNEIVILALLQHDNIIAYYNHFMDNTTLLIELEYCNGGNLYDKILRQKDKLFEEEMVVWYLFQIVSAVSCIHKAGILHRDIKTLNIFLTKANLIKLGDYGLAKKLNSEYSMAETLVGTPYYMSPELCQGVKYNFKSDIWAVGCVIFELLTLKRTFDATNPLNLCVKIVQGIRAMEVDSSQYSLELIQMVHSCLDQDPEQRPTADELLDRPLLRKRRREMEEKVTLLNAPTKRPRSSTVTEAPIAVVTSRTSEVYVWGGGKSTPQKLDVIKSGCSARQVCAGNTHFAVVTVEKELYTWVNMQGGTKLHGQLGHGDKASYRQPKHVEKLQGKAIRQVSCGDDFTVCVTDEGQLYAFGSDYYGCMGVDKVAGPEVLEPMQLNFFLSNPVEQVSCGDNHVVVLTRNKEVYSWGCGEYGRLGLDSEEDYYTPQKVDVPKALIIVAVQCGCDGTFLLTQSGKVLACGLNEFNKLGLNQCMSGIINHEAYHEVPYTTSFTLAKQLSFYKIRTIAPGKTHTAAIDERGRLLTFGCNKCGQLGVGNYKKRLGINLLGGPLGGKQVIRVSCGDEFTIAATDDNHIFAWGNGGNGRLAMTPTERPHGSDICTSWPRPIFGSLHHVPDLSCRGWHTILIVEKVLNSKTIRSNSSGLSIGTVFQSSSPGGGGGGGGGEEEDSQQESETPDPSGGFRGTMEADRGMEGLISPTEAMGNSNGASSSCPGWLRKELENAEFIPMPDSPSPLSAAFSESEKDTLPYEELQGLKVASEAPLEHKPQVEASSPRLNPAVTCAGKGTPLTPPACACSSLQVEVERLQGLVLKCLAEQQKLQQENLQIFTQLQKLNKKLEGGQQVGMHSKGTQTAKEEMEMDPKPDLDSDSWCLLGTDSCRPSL

Wee1-like protein kinase = Wee1-like protein kinase (Homo sapiens, UniProt P30291); assay: Inhibition of WEE1
Sequence of Wee1-like protein kinase (P30291 whole entry): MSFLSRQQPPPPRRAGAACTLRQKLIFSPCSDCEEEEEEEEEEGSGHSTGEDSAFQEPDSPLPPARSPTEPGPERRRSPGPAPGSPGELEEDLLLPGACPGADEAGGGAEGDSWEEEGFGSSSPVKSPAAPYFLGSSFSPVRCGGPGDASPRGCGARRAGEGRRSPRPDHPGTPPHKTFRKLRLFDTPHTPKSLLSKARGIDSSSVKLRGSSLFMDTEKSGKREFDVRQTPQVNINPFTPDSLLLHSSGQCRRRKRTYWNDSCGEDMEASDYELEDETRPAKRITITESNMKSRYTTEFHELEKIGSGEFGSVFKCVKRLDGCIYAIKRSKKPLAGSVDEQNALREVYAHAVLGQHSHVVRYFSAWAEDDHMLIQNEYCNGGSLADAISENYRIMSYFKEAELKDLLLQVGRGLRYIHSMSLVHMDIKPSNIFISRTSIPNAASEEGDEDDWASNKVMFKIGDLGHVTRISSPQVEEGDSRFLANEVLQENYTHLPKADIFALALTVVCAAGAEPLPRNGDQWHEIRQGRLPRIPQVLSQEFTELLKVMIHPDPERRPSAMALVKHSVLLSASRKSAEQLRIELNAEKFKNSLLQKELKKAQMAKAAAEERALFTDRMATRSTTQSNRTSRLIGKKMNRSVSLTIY

[14] = biological target: Epidermal growth factor receptor (Homo sapiens, UniProt P00533); assay: Inhibition of EGFR
[15] = biological target: Non-receptor tyrosine-protein kinase TNK1 (Homo sapiens, UniProt Q13470); assay: Inhibition of TNK1
[16] = biological target: BMP-2-inducible protein kinase (Homo sapiens, UniProt Q9NSY1); assay: Inhibition of BMP2K
[17] = biological target: Mitogen-activated protein kinase kinase kinase kinase 3 (Homo sapiens, UniProt Q8IVH8); assay: Inhibition of MAP4K3
[18] = biological target: Maternal embryonic leucine zipper kinase (Homo sapiens, UniProt Q14680); assay: Inhibition of MELK
[19] = biological target: Tyrosine-protein kinase Fer (Homo sapiens, UniProt P16591); assay: Inhibition of FER
[20] = biological target: Calcium/calmodulin-dependent protein kinase kinase 1 (Homo sapiens, UniProt Q8N5S9); assay: Inhibition of CAMKK1
Sequence of Calcium/calmodulin-dependent protein kinase kinase 1 (Q8N5S9 whole entry): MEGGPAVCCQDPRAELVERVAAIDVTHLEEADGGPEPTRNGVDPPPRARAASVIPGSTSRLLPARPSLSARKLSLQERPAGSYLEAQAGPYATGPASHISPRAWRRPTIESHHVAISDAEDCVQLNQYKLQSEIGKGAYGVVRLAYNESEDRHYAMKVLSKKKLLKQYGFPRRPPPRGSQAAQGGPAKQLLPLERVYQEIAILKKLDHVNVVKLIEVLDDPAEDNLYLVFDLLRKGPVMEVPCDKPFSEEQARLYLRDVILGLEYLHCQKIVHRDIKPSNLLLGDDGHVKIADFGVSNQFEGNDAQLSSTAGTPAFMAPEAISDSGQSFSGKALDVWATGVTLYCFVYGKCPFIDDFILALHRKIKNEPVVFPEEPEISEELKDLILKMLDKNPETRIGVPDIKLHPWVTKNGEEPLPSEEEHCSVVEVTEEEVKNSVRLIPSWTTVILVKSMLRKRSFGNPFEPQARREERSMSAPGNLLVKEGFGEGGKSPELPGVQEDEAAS

[21] = biological target: Tyrosine-protein kinase ITK/TSK (Homo sapiens, UniProt Q08881); assay: Inhibition of ITK
[22] = biological target: Tyrosine-protein kinase Lyn (Homo sapiens, UniProt P07948); assay: Inhibition of LYN
Activin receptor type-1 = Activin receptor type-1 (Homo sapiens, UniProt Q04771); assay: Inhibition of ACVR1
[23] = biological target: Atypical kinase COQ8A, mitochondrial (Homo sapiens, UniProt Q8NI60); assay: Inhibition of CABC1
Sequence of Atypical kinase COQ8A, mitochondrial (Q8NI60 whole entry): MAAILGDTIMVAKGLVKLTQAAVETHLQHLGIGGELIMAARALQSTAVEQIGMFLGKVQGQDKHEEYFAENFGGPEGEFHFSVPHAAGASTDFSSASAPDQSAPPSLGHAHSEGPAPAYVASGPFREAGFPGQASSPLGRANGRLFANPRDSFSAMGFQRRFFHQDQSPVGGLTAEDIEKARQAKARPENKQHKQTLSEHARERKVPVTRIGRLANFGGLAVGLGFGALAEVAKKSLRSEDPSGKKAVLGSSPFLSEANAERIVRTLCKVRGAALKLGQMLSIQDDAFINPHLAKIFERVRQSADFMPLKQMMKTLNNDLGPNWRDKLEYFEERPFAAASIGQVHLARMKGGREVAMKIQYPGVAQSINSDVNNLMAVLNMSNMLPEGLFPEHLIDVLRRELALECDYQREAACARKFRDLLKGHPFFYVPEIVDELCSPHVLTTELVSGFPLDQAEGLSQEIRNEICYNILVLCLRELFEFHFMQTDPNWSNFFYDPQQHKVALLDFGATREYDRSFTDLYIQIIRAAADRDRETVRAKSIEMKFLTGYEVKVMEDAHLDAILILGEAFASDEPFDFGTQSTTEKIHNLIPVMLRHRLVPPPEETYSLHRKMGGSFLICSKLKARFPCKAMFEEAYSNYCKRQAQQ

[24] = biological target: Mitogen-activated protein kinase 9 (Homo sapiens) (UniProt P45984); assay: Inhibition of MAPK9
Sequence of Mitogen-activated protein kinase 9 (Homo sapiens) (P45984 whole entry, looked up): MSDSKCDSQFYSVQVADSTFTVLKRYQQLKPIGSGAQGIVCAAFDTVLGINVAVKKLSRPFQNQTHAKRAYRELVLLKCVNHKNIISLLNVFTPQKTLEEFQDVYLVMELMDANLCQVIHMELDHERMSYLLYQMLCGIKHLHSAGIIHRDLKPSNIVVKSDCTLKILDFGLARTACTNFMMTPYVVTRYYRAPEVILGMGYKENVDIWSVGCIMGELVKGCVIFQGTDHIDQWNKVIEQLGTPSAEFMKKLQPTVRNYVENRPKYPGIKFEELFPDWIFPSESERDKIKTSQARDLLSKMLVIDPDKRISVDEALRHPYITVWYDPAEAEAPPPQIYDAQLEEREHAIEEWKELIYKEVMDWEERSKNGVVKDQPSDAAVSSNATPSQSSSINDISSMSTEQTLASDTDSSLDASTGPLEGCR

[25] = biological target: Interleukin-1 receptor-associated kinase 3 (Homo sapiens, UniProt Q9Y616); assay: Inhibition of IRAK3

IC50 (Activin receptor type-2B): > 10 µM
IC50 [1]: > 10 µM
IC50 [2]: 2.45 µM
IC50 (Activin receptor type-2A): > 10 µM
IC50 (Ephrin type-A receptor 2): > 10 µM
Cmax [3]: 10.2 µM
IC50 [4]: > 10 µM
IC50 [5]: > 10 µM
IC50 [6]: 9.33 µM
IC50 [7]: > 10 µM
IC50 [8]: > 10 µM
IC50 [9]: > 10 µM
IC50 [10]: > 10 µM
IC50 [11]: > 10 µM
IC50 [12]: > 10 µM
IC50 (Wee1-like protein kinase): > 10 µM
IC50 [14]: > 10 µM
IC50 [15]: > 10 µM
IC50 [16]: > 10 µM
IC50 [17]: > 10 µM
IC50 [18]: > 10 µM
IC50 [19]: > 10 µM
IC50 [20]: > 10 µM
IC50 [21]: > 10 µM
IC50 [22]: > 10 µM
IC50 (Activin receptor type-1): > 10 µM
IC50 [23]: > 10 µM
IC50 [24]: > 10 µM
IC50 [25]: > 10 µM
SMILES: CC(C)(C)NS(=O)(=O)c1cncc(-c2ccn3nc(N)nc3c2)c1
inhibition in vivo at 10 mg/kg (Mus musculus): 46%
IC50 [13]: > 10 µM
